Assays:
LT-HSC = details: background, 2014 report; cited from earlier work
[1] = system: cord blood-derived CD34+ cells; test: In vitro expansion of CD34+CD45RA− cells, 7-day culture of cord blood-derived CD34+ cells; type: cell-based, human
Procedure: The material was derived from cord blood waste supplied by the company, and cord blood-derived CD34+ cells were isolated by magnetic bead sorting (MACS) as cultured materials in the following examples.
CD34+ cells were cultured based on the culture conditions of Table 1. The experimental group (the small chemical molecule is SP600125) and the control group (the small chemical molecule is replaced by DMSO, the volume ratio of DMSO: medium is 1:10000) were placed in the cell incubator at 37° C. with the concentration of 5% carbon dioxide, and half amount of the medium was changed every 2 days.
On the 7th day of the culturing, the ratio of CD34+CD45RA−cells was measured, and the fold expansion was counted and calculated. The CD34+CD45RA− in the experimental group was about 15 times in the fold expansion, while the CD34+CD45RA− in the control group was about 5 times in fold expansion.

immunodeficient mice = test: Transplantation experiment in vivo: reconstitution of human cells in bone marrow and peripheral blood after 4 months; details: for reconstruction effect of experimental group relative to control group (DMSO): 4 months; for blood cells in human peripheral blood (reconstitution proportion of peripheral blood) / reconstruction proportion of human blood cells in bone marrow (CD45+ cells): 4 months after transplantation
Procedure: On the 7th day of the culturing, the transplantation experiment in vivo was carried out at the meantime. The expanded CD34+ cells in the experimental group and the control group were respectively injected into the immunodeficient mice by bone marrow transplantation. Each group contain 8 mice, and each mouse was injected with the total cells expanded from 5000 original CD34+ cells. The reconstitution ratio of human cells in peripheral blood and bone marrow of immunodeficient mice were measured after 4 months. In the experimental group, the reconstruction proportion of human blood cells in bone marrow (CD45+ cells) reached about 50%, and the blood cells in human peripheral blood reached about 5%. In the control group, the reconstruction proportion of human blood cells in bone marrow reached about 20%, and the blood cells in human peripheral blood reached about 1%. The reconstruction effect of the experimental group was about 4 times higher than that of the control group after a general comparison.

immunodeficiency mice = details: background, 2010 report; cited from earlier work
[2] = Example 4: cells expanded with 5 μM
[3] = Example 5: cells expanded with 1 μM
[4] = Example 6: cells expanded with 0.5 μM
[5] = Example 2: cells expanded with 4 μM
[6] = Example 3: cells expanded with 2 μM
[7] = Example 7: cells expanded with 5 μM

## Cn1nnc(-c2ccc3c(c2)[nH]c2nc(Cc4ccccc4)nc(NC4CCC(N)CC4)c23)n1 (stereo not drawn) [UM171]
LT-HSC
  maintenance of the function of hematopoietic reconstitution: up to 6 months

## N#C/C(=C1/Nc2ccccc2S1)c1ccnc(NCCc2cccnc2)n1 [AEG-3482]
[1]; Example 4: 5 μM, SCF 10, FL 100, TPO 10 ng/ml, LDL 2 μg/ml, day 7
  proliferation amount of CD34+CD45RA− in the experimental group relative to control group (DMSO): 2.3 times
Immunodeficient mice; Example 4: 5 μM, general comparison
  reconstruction effect of experimental group relative to control group (DMSO): about 2.5 times
Immunodeficient mice; [2]
  blood cells in human peripheral blood (reconstitution proportion of peripheral blood): about 3.5%
  reconstruction proportion of human blood cells in bone marrow (CD45+ cells): about 35%

## CC(C)n1cnc2c(NCCc3ccc(O)cc3)nc(-c3csc4ccccc34)nc21 [SR1]
Immunodeficiency mice
  increase of the amount of exogenous hematopoietic cells detected in immunodeficiency mice: 17 times

## CN(C)C/C=C/C(=O)Nc1cccc(C(=O)Nc2ccc(Nc3nccc(-c4cccnc4)n3)cc2)c1 [JNK-IN-7]
[1]; Example 5: 1 μM, SCF 200, FL 50, TPO 5 ng/ml, LDL 10 μg/ml, day 7
  proliferation amount of CD34+CD45RA− in the experimental group relative to control group (DMSO): 2.5 times
Immunodeficient mice; Example 5: 1 μM, general comparison
  reconstruction effect of experimental group relative to control group (DMSO): about 5 times
Immunodeficient mice; [3]
  blood cells in human peripheral blood (reconstitution proportion of peripheral blood): about 8.5%
  reconstruction proportion of human blood cells in bone marrow (CD45+ cells): about 58%

## CN(C)C/C=C/C(=O)Nc1cccc(C(=O)Nc2ccc(Nc3nccc(-c4c(-c5ccccc5)nn5ccccc45)n3)cc2)c1 [JNK-IN-11]
[1]; Example 6: 0.5 μM, SCF 300, FL 100, TPO 20 ng/ml, LDL 10 μg/ml, day 7
  proliferation amount of CD34+CD45RA− in the experimental group relative to control group (DMSO): 2.8 times
Immunodeficient mice; Example 6: 0.5 μM, general comparison
  reconstruction effect of experimental group relative to control group (DMSO): about 8 times
Immunodeficient mice; [4]
  blood cells in human peripheral blood (reconstitution proportion of peripheral blood): about 12.5%
  reconstruction proportion of human blood cells in bone marrow (CD45+ cells): about 78%

## O=C1c2ccccc2-c2n[nH]c3cccc1c23 [SP600125]
[1]; Example 1: 4 μM, SCF 100, FL 100, TPO 50 ng/ml, LDL 10 μg/ml
  fold expansion of CD34+CD45RA− cells at day 7 relative to the primary cells: about 15 times
[1]; Example 2: 4 μM, SCF 50, FL 50, TPO 25 ng/ml, LDL 5 μg/ml, day 7
  CD34+CD45RA− in the experimental group relative to control group (DMSO): 2.5 times
[1]; Example 3: 2 μM, SCF 20, FL 50, TPO 20 ng/ml, LDL 5 μg/ml, day 7
  proliferation amount of CD34+CD45RA− in the experimental group relative to control group (DMSO): 2 times
[1]; Example 7: 5 μM, SCF 500, FL 100, TPO 20 ng/ml, LDL 10 μg/ml, day 7
  proliferation amount of CD34+CD45RA− in the experimental group relative to control group (DMSO): 2.3 times
Immunodeficient mice; Example 1: 4 μM, general comparison
  reconstruction effect of experimental group relative to control group (DMSO): about 4 times
Immunodeficient mice; Example 1: cells expanded with 4 μM
  blood cells in human peripheral blood (reconstitution proportion of peripheral blood): about 5%
Immunodeficient mice; Example 1: cells expanded with 4 μM, cells from 5000 original CD34+ cells per mouse
  reconstruction proportion of human blood cells in bone marrow (CD45+ cells): about 50%
Immunodeficient mice; Example 2: 4 μM, general comprehensive comparison
  reconstruction effect of experimental group relative to control group (DMSO): about 6 times
Immunodeficient mice; [5]
  blood cells in human peripheral blood (reconstitution proportion of peripheral blood): about 9%
  reconstruction proportion of human blood cells in bone marrow (CD45+ cells): about 70%
Immunodeficient mice; Example 3: 2 μM, general comparison
  reconstruction effect of experimental group relative to control group (DMSO): about 4 times
Immunodeficient mice; [6]
  blood cells in human peripheral blood (reconstitution proportion of peripheral blood): about 4%
  reconstruction proportion of human blood cells in bone marrow (CD45+ cells): about 40%
Immunodeficient mice; Example 7: 5 μM, general comparison
  reconstruction effect of experimental group relative to control group (DMSO): about 5.5 times
Immunodeficient mice; [7]
  blood cells in human peripheral blood (reconstitution proportion of peripheral blood): about 7.5%
  reconstruction proportion of human blood cells in bone marrow (CD45+ cells): about 58%
